# Columns and labels:
# Format in all cases: in vivo
# Settings in all cases: after four weeks, 0=no damage 100=complete damage
# Digitaria sanguinalis = experiment: Post-emergence action against weeds, Example 2: greenhouse, visual scoring of damage
# Method: (§1) The plant species listed below were sown in Jiffy pots and cultivated in a greenhouse at a day/night rhythm of 22° C./14° C. At the 2-4-leaf stage, the plants were then treated with an aqueous solution of the compounds in question at the stated dosages. After four weeks, the results were scored visually using the following scheme: 0=no damage 100=complete damage AS/ha=active substance/hectare
# Polygonum convolvulus [1] = experiment: as above
# Method: as §1
# Abutilon theophrasti = experiment: Post-emergence action against weeds, Example 3: greenhouse, visual scoring of damage
# Method: as §1
# Polygonum convolvulus [2] = experiment: as above
# Method: as §1
# Setaria viridis = experiment: Post-emergence action against weeds, Example 2: greenhouse, visual scoring of damage
# Method: as §1
smiles,measurement,setting,value
"Cc1ccc2c(c1)[C@H](Nc1nc(N)nc([C@@H](C)F)n1)CC2 [Compound B-22, 2-amino-4-[(1R)-6-methylindan-1-ylamino]-6-[(1R)-1-fluoroethyl]-1,3,5-triazine]",Damage DIGSA,Digitaria sanguinalis; 13 g of AS/ha,24
same,Damage DIGSA,Digitaria sanguinalis; 25 g of AS/ha,55
"Cc1ccc2c(c1)[C@H](Nc1nc(N)nc([C@@H](C)F)n1)[C@@H](C)C2 [Compound B-47, 2-amino-4-[(1R,2S)-2,6-dimethylindan-1-ylamino]-6-[(1R)-1-fluoroethyl]-1,3,5-triazine]",Damage POLCO,Polygonum convolvulus [1]; 13 g of AS/ha,0
same,Damage POLCO,Polygonum convolvulus [1]; 25 g of AS/ha,0
same,Damage ABUTH,Abutilon theophrasti; 13 g of AS/ha,5
same,Damage ABUTH,Abutilon theophrasti; 25 g of AS/ha,15
same,Damage POLCO,Polygonum convolvulus [2]; 13 g of AS/ha,0
same,Damage POLCO,Polygonum convolvulus [2]; 25 g of AS/ha,0
"Cc1ccc2c(c1)[C@H](Nc1nc(N)nc([C@@H](C)F)n1)[C@H](C)C2 (racemic) [Compound B-44, 2-amino-4-[(1RS,2RS)-2,6-dimethylindan-1-ylamino]-6-[(1RS)-1-fluorethyl]-1,3,5-triazine]",Damage SETVI,Setaria viridis; 13 g of AS/ha,3
same,Damage SETVI,Setaria viridis; 25 g of AS/ha,5
